Strand notation (5' to 3'): a small letter for the sugar, then the base; units joined by * are phosphorothioate-linked, units joined directly phosphodiester-linked; [ ] holds rarer units or linkages, { } end groups; capitals alone tell only the bases. e = 2'-O-(2-methoxyethyl) (MOE); [5mC] = 5-methylcytosine; d = 2'-deoxy (DNA)
System: human SMAD7 mRNA
Assay: Antisense inhibition of human SMAD7 mRNA expression in Hep3B cells by 5-10-5 MOE gapmers, single concentration, electroporation, RT-PCR (Example 1, Study 1 and 2)
Assay type: cell-based
Conditions: Study 2, electroporation with 15,000 nM antisense oligonucleotide, 5-10-5 MOE gapmers targeting SEQ ID NO: 1 and 2
Protocol: Antisense oligonucleotides were designed to target human SMAD7 mRNA and were tested for their effects on SMAD7 mRNA expression in vitro. Cultured Hep3B cells at a density of 20,000 cells per well were transfected using electroporation with antisense oligonucleotide ION 483663 (a 5-10-5 MOE gapmer), the sequence of which overlaps with ION 28453 (a 4-10-4 MOE gapmer) was included in these assays for comparison. ION 28453 has been previously disclosed in U.S. Pat. No. 6,159,697). After a treatment period of approximately 24 hours, RNA was isolated from the cells and SMAD7 mRNA levels were measured by quantitative real-time PCR. Primer probe set RTS5062 (forward sequence […], designated herein as SEQ ID NO: 11; reverse sequence […], designated herein as SEQ ID NO: 12; probe sequence […], designated herein as SEQ ID NO: 13) was used to measure human SMAD7 mRNA levels. SMAD7 mRNA levels were adjusted according to total RNA content, as measured by RIBOGREEN®. Results are presented as percent inhibition of SMAD7 mRNA expression, relative to untreated control cells.
The newly designed chimeric antisense oligonucleotides in the Tables below were designed as 5-10-5 MOE gapmers. The gapmers are 20 nucleosides in length, wherein the central gap segment comprises of ten 2′-deoxynucleosides and is flanked by wing segments on the 5′ direction and the 3′ direction comprising five nucleosides each. Each nucleoside in the 5′ wing segment and each nucleoside in the 3′ wing segment has a 2′-MOE modification. The internucleoside linkages throughout each gapmer are phosphorothioate (P═S) linkages. All cytosine residues throughout each gapmer are 5-methylcytosines.
“Start site” indicates the 5′-most nucleoside to which the gapmer is targeted in the human gene sequence. “Stop site” indicates the 3′-most nucleoside to which the gapmer is targeted human gene sequence.
Cultured Hep3B cells at a density of 20,000 cells per well were transfected using electroporation with 5,000 nM antisense oligonucleotide.
Cultured Hep3B cells at a density of 20,000 cells per well were transfected using electroporation with 15,000 nM antisense oligonucleotide. The antisense oligonucleotides were tested in a series of experiments that had similar culture conditions as described below.
Some of the oligonucleotides presented were complementary to SMAD7 mRNA sequences RefSeqNo. NM_001190821.1 (designated herein as SEQ ID NO: 3) or RefSeqNo. NM_001190822.1 (designated herein as SEQ ID NO: 4), and are presented in a separate table shown below.

Going from “771369 (antisense e[5mC]*eA*eA*eA*eA*dG*dG*d[5mC]*dT*dG*dA*d[5mC]*dT*d[5mC]*dG*e[5mC]*eG*eG*e[5mC]*e[5mC]) [compound 771369]” to “771827 (antisense eA*eA*eG*eG*eA*d[5mC]*dA*dT*d[5mC]*dA*d[5mC]*dA*dG*dG*dG*eA*e[5mC]*eT*eG*eG) [compound 771827]”, the “% Inhibition” value rises from 22% to 33%.

Compared with “771436 (eG*eA*eG*e[5mC]*eA*dG*d[5mC]*dA*dG*d[5mC]*dT*d[5mC]*d[5mC]*dA*dG*e[5mC]*eT*eG*e[5mC]*e[5mC]; antisense) [compound 771436]”, “771783 (antisense e[5mC]*e[5mC]*e[5mC]*eT*eT*d[5mC]*dA*dG*dA*dG*dA*dG*dT*d[5mC]*dA*e[5mC]*eT*eG*e[5mC]*eT) [compound 771783]” is higher in “% Inhibition” value: 27% for the first, 49% for the second.

Compared with “771919 (antisense e[5mC]*eA*eA*eT*eG*dG*d[5mC]*dA*d[5mC]*dA*dG*dG*dG*dT*dG*eA*e[5mC]*e[5mC]*eA*eG) [compound 771919]”, “771895 (antisense eA*eT*eT*eT*eG*d[5mC]*dA*dA*d[5mC]*dA*dA*dT*dA*dA*dA*eA*e[5mC]*eA*eA*eA) [compound 771895]” is lower in “% Inhibition” value: 29% for the first, 0% for the second.

Compared with “771708 (antisense eG*eG*eA*eT*eA*dA*dA*dA*dG*dG*dA*dA*dA*dG*dG*eA*eG*eT*eT*eT) [compound 771708]”, “771423 (eG*e[5mC]*eA*eG*e[5mC]*dA*dT*d[5mC]*d[5mC]*dA*dG*d[5mC]*d[5mC]*d[5mC]*dT*eG*e[5mC]*e[5mC]*e[5mC]*eG; antisense) [compound 771423]” is higher in “% Inhibition” value: 0% for the first, 39% for the second.

Going from “771726 (antisense eA*eG*e[5mC]*e[5mC]*eA*dA*dA*dA*d[5mC]*d[5mC]*d[5mC]*dA*dG*dT*d[5mC]*eA*eA*eG*eT*eT) [compound 771726]” to “771359 (antisense eG*eT*e[5mC]*eA*e[5mC]*d[5mC]*d[5mC]*dG*dT*d[5mC]*dT*dG*dG*dG*d[5mC]*eT*e[5mC]*e[5mC]*eG*eG) [compound 771359]”, the “% Inhibition” value falls from 19% to 15%.

First: 771886 (antisense eA*eA*e[5mC]*e[5mC]*eA*dG*dG*dT*dT*d[5mC]*d[5mC]*d[5mC]*dA*d[5mC]*dT*eG*eT*eT*eA*e[5mC]) [compound 771886]
Second: 771361 (antisense eA*e[5mC]*eA*eG*e[5mC]*dA*d[5mC]*d[5mC]*dT*dT*dG*dT*d[5mC]*dA*d[5mC]*e[5mC]*e[5mC]*eG*eT*e[5mC]) [compound 771361]
The “% Inhibition” value of the first is lower: 0% for the first, 27% for the second.

“771767 (antisense e[5mC]*e[5mC]*eT*eA*eA*dA*dG*dG*dT*dG*dG*dG*dT*d[5mC]*d[5mC]*eA*eT*eT*e[5mC]*e[5mC]) [compound 771767]” was tested, and the “% Inhibition” value was 16%.

First: 771485 (antisense eA*eA*eG*e[5mC]*e[5mC]*d[5mC]*dG*dT*d[5mC]*d[5mC]*dA*d[5mC]*dG*dG*d[5mC]*eT*eG*e[5mC]*eT*eG) [compound 771485]
Second: 771503 (antisense eG*e[5mC]*eT*e[5mC]*eA*d[5mC]*dG*d[5mC]*dT*d[5mC]*dT*dG*dT*d[5mC]*d[5mC]*e[5mC]*e[5mC]*eT*e[5mC]*e[5mC]) [compound 771503]
The “% inhibition of SMAD7 mRNA expression” value of the first is lower: 15% for the first, 27% for the second.

“771660 (antisense eT*eT*e[5mC]*eT*e[5mC]*dT*dT*dG*dT*dT*d[5mC]*dA*dT*dT*dT*eA*eA*eA*e[5mC]*e[5mC]) [compound 771660]” and “771532 (antisense eA*eG*eA*eA*eG*dA*dA*dA*dA*d[5mC]*d[5mC]*dA*dA*d[5mC]*d[5mC]*eA*eA*e[5mC]*eA*eA) [compound 771532]” are the same in “% inhibition of SMAD7 mRNA expression” value: 0% for the first, 0% for the second.

Same assay, conditions: electroporation with 15,000 nM antisense oligonucleotide (Study 2), 5-10-5 MOE gapmers targeting SEQ ID NO: 1 and 2

Going from “771489 (antisense e[5mC]*eA*eA*eA*eG*d[5mC]*dT*dG*dA*dT*d[5mC]*dT*dG*d[5mC]*dA*e[5mC]*eG*eG*eT*eA) [compound 771489]” to “771904 (antisense e[5mC]*e[5mC]*e[5mC]*eA*eA*d[5mC]*d[5mC]*d[5mC]*dA*dT*d[5mC]*dT*d[5mC]*d[5mC]*dA*e[5mC]*e[5mC]*eA*e[5mC]*e[5mC]) [compound 771904]”, the “% Inhibition of SMAD7 mRNA” value falls from 34% to 0%.

Going from “771760 (antisense eA*eT*e[5mC]*eT*eT*dA*d[5mC]*d[5mC]*dT*dG*dA*dA*dA*dG*d[5mC]*e[5mC]*e[5mC]*e[5mC]*e[5mC]*e[5mC]) [compound 771760]” to “771864 (antisense eA*eG*eA*e[5mC]*eA*dA*dA*dG*dA*dT*d[5mC]*dA*d[5mC]*dA*dG*eA*eT*e[5mC]*eA*e[5mC]) [compound 771864]”, the “% Inhibition of SMAD7 mRNA” value rises from 25% to 27%.

Compared with “771451 (antisense eA*eG*eA*e[5mC]*eT*d[5mC]*dT*dA*dG*dT*dT*d[5mC]*dG*d[5mC]*dA*eG*eA*eG*eT*e[5mC]) [compound 771451]”, “771682 (antisense eT*eG*eT*eT*eA*dT*dT*dT*dG*d[5mC]*dA*dT*dT*dT*dA*eT*eA*eT*eT*eA) [compound 771682]” is higher in “% inhibition of SMAD7 mRNA expression” value: 15% for the first, 18% for the second.

“771609 (antisense eA*eT*eG*eT*e[5mC]*dA*d[5mC]*d[5mC]*dA*dG*dG*dG*d[5mC]*dA*dG*eG*e[5mC]*eA*eG*eG) [compound 771609]” was tested, and the “% inhibition of SMAD7 mRNA expression” value was 47%.

Same assay, conditions: electroporation, 5,000 nM, approximately 24 hours, relative to untreated control cells, gapmers targeting SEQ ID NO: 1 and 2

Compared with “771827 (antisense eA*eA*eG*eG*eA*d[5mC]*dA*dT*d[5mC]*dA*d[5mC]*dA*dG*dG*dG*eA*e[5mC]*eT*eG*eG) [compound 771827]”, “771436 (eG*eA*eG*e[5mC]*eA*dG*d[5mC]*dA*dG*d[5mC]*dT*d[5mC]*d[5mC]*dA*dG*e[5mC]*eT*eG*e[5mC]*e[5mC]; antisense) [compound 771436]” is higher in “% inhibition of SMAD7 mRNA expression” value: 31% for the first, 50% for the second.

Same assay, conditions: electroporation, 15,000 nM antisense oligonucleotide (Study 2), 5-10-5 MOE gapmers targeting SEQ ID NO: 1 and 2

Compared with “771489 (antisense e[5mC]*eA*eA*eA*eG*d[5mC]*dT*dG*dA*dT*d[5mC]*dT*dG*d[5mC]*dA*e[5mC]*eG*eG*eT*eA) [compound 771489]”, “771904 (antisense e[5mC]*e[5mC]*e[5mC]*eA*eA*d[5mC]*d[5mC]*d[5mC]*dA*dT*d[5mC]*dT*d[5mC]*d[5mC]*dA*e[5mC]*e[5mC]*eA*e[5mC]*e[5mC]) [compound 771904]” is lower in “% inhibition of SMAD7 mRNA expression” value: 27% for the first, 0% for the second.

Going from “771426 (e[5mC]*eA*e[5mC]*e[5mC]*eG*d[5mC]*d[5mC]*dT*dT*dG*d[5mC]*d[5mC]*d[5mC]*dA*dG*eG*e[5mC]*eA*eG*e[5mC]; antisense) [compound 771426]” to “771801 (antisense eA*e[5mC]*e[5mC]*eT*eA*d[5mC]*dA*dA*d[5mC]*dT*d[5mC]*dA*d[5mC]*dA*dA*eG*eG*eG*eA*eG) [compound 771801]”, the “% inhibition of SMAD7 mRNA expression” value rises from 28% to 31%.

First: 771372 (antisense eA*e[5mC]*eA*eA*eA*d[5mC]*d[5mC]*dA*d[5mC]*dA*d[5mC]*dA*dT*dT*d[5mC]*e[5mC]*eA*eA*eA*eA) [compound 771372]
Second: 771913 (antisense eA*eA*eA*eA*eA*dA*dG*d[5mC]*d[5mC]*dA*dG*dT*dA*dA*dA*eG*eA*e[5mC]*eA*eT) [compound 771913]
The “% inhibition of SMAD7 mRNA expression” value of the first is higher: 37% for the first, 11% for the second.

First: 771513 (antisense eA*eG*e[5mC]*eA*eA*dA*dG*dT*dA*dG*dT*dT*dT*dG*dA*eA*eG*eT*eG*eT) [compound 771513]
Second: 771529 (antisense e[5mC]*eG*eA*e[5mC]*e[5mC]*dA*dA*dA*dG*dA*dG*dT*dT*dT*dG*e[5mC]*eA*eT*eG*eA) [compound 771529]
The “% inhibition of SMAD7 mRNA expression” value of the first is higher: 34% for the first, 0% for the second.

Compared with “771760 (antisense eA*eT*e[5mC]*eT*eT*dA*d[5mC]*d[5mC]*dT*dG*dA*dA*dA*dG*d[5mC]*e[5mC]*e[5mC]*e[5mC]*e[5mC]*e[5mC]) [compound 771760]”, “771864 (antisense eA*eG*eA*e[5mC]*eA*dA*dA*dG*dA*dT*d[5mC]*dA*d[5mC]*dA*dG*eA*eT*e[5mC]*eA*e[5mC]) [compound 771864]” is lower in “% inhibition of SMAD7 mRNA expression” value: 3% for the first, 0% for the second.

First: 771349 (antisense eA*e[5mC]*eT*e[5mC]*e[5mC]*dA*dA*dA*dG*dG*dT*dG*d[5mC]*dG*d[5mC]*eG*eG*e[5mC]*e[5mC]*eA) [compound 771349]
Second: 771746 (antisense eA*eA*eG*e[5mC]*e[5mC]*dG*dG*dG*d[5mC]*dA*dT*d[5mC]*dT*d[5mC]*dA*eG*eA*eG*e[5mC]*eA) [compound 771746]
The “% inhibition of SMAD7 mRNA expression” value of the first is higher: 26% for the first, 22% for the second.

Going from “771713 (antisense eT*eG*e[5mC]*e[5mC]*eT*dA*d[5mC]*dA*d[5mC]*dA*d[5mC]*dA*dA*dA*dA*eA*eG*e[5mC]*e[5mC]*eA) [compound 771713]” to “771562 (antisense eA*e[5mC]*eA*e[5mC]*eA*d[5mC]*dA*d[5mC]*dT*d[5mC]*d[5mC]*dT*dG*dA*d[5mC]*eA*eA*eG*eT*eG) [compound 771562]”, the “% inhibition of SMAD7 mRNA expression” value rises from 15% to 30%.

Same assay, conditions: electroporation, 15,000 nM, approximately 24 hours, relative to untreated control cells, gapmers targeting SEQ ID NO: 1 and 2

“771837 (antisense eA*eG*eT*eG*eT*dT*dG*dA*dG*dG*dA*d[5mC]*dT*d[5mC]*d[5mC]*e[5mC]*e[5mC]*eA*eG*e[5mC]) [compound 771837]” and “771765 (antisense e[5mC]*e[5mC]*eA*eA*eG*d[5mC]*d[5mC]*dA*dG*dG*dA*dG*d[5mC]*dT*dG*e[5mC]*eT*eT*eA*eA) [compound 771765]” are the same in “% inhibition of SMAD7 mRNA expression” value: 48% for the first, 48% for the second.
